Residue numbers refer to the chain shown, from its start. Like-named read-outs stand apart in the source and are kept apart here.
Tests used:
Assay in all cases: Whole cell [3H]NMS binding inhibition/interaction assay (ACh ± PAM), FlpIn CHO cells
[1] = biological target: T1, Y179^ECL2A M1 mAChR (Homo sapiens, UniProt P11229, Y179A); details: affinity and cooperativity could not be estimated
T1 construct: expressed in transfected cells
T1 sequence (P11229 1-460 Y179A): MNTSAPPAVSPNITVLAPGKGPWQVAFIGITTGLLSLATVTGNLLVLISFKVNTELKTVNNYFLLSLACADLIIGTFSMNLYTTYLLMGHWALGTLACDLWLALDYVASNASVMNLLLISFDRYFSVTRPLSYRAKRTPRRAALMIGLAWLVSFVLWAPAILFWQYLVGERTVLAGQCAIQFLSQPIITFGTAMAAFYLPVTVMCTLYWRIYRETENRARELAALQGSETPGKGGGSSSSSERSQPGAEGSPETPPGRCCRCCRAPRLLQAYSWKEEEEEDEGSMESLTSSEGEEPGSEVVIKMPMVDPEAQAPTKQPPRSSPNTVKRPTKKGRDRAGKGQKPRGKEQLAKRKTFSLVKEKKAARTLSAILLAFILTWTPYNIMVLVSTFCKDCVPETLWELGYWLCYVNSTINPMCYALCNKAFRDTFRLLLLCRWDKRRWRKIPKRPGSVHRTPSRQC
Method: (§1) Saturation binding assays were performed to estimate the expression levels and equilibrium dissociation constant of the radioligand (KD). FlpIn CHO cells stably expressing the WT or mutant c-myc hM1 mAChRs were plated at the density of 25,000 per well of 96-well white clear bottom Isoplates (PerkinElmer Life Sciences, Boston, MA), and grown overnight at 37 °C. […] Atropine at the final concentration of 100 µM was used to determine non-specific binding. The assays were terminated by rapid removal of the radioligand, and two washes with 100 µl/well ice-cold 0.9% NaCl buffer.
(§2) All data were analysed using GraphPad Prism 7 (San Diego, CA). […] Binding interaction studies between orthosteric agonists and allosteric modulators were fitted to the following allosteric ternary complex model (Eq. (1)):(1) Y=BmaxD/D+KDKB/α^′B+KB1+I/KI+B/KB+αIB/KIKB where Bmax is the total number of receptors, [D], [B] and [I] denote the concentrations of radioligand, allosteric ligand, and orthosteric ligand, respectively, and KD, KB and KI represent their respective equilibrium dissociation constants. α′ and α are the cooperativity factors between the allosteric ligand and radioligand or orthosteric ligand, respectively.

[2] = biological target: T2, F77^2.56I M1 mAChR (Homo sapiens, UniProt P11229, F77I); details: for Logα NMS (logarithm of binding cooperativity between [3H]NMS and modulator): constrained to −2 where preferred model by F-test
T2 construct: expressed in transfected cells
T2 sequence (P11229 1-460 F77I): T1 sequence (P11229 1-460 Y179A) with F77I, A179Y
Method: as §1, §2

[3] = biological target: T3, WT M1 mAChR (Homo sapiens, UniProt P11229); details: for Logα NMS (logarithm of binding cooperativity between [3H]NMS and modulator): constrained to −2 where preferred model by F-test
T3 construct: expressed in transfected cells
T3 sequence (P11229 1-460): T1 sequence (P11229 1-460 Y179A) with A179Y
Method: as §1, §2

[4] = biological target: T4, Y82^2.61A M1 mAChR (Homo sapiens, UniProt P11229, Y82A)
T4 construct: expressed in transfected cells
T4 sequence (P11229 1-460 Y82A): T1 sequence (P11229 1-460 Y179A) with Y82A, A179Y
Method: as §1, §2

Modulatory effect on ACh inhibition of [3H]NMS binding [1] | Logα ACh (logarithm of binding cooperativity between ACh and modulator) ([2]; F77^2.56I) | α ACh (binding cooperativity with ACh, antilog in brackets) ([2]; F77^2.56I) | Logα NMS (logarithm of binding cooperativity between [3H]NMS and modulator) ([2]; F77^2.56I) | Logα ACh (logarithm of binding cooperativity between ACh and modulator) ([3]; WT) | Logα NMS (logarithm of binding cooperativity between [3H]NMS and modulator) ([3]; WT) | Logα ACh (logarithm of binding cooperativity between ACh and modulator) ([4]; Y82^2.61A) | Logα NMS (logarithm of binding cooperativity between [3H]NMS and modulator) ([4]; Y82^2.61A) | α ACh (binding cooperativity with ACh, antilog in brackets) ([4]; Y82^2.61A) | α NMS (binding cooperativity with [3H]NMS, antilog in brackets) ([4]; Y82^2.61A) | α NMS (binding cooperativity with [3H]NMS, antilog in brackets) ([2]; F77^2.56I) | Kb ([2]; F77^2.56I, allosteric ternary complex model, 0.3 nM [3H]NMS, read-out: pKB (negative logarithm of the allosteric modulator equilibrium dissociation constant) (converted)) [nM] | Kb ([3]; WT, allosteric ternary complex model, 0.3 nM [3H]NMS, read-out: pKB (negative logarithm of the allosteric modulator equilibrium dissociation constant) (converted)) [nM] | Kb ([4]; Y82^2.61A, allosteric ternary complex model, 0.6 nM [3H]NMS, read-out: pKB (negative logarithm of the allosteric modulator equilibrium dissociation constant) (converted)) [nM] | Structure (SMILES) | Kb [2] [nM] | Kb [3] [nM] | Kb [4] [nM] | α ACh (binding cooperativity with ACh, antilog in brackets) ([3]; WT)
completely abolished | 1.60 ± 0.09 | 25.7 | = −2 | 1.60 ± 0.08 | = −2 | 1.66 ± 0.19 | −0.16 ± 0.06 | 45.7 | 0.69 |  |  |  |  | Cn1cc(-c2ccc(COc3ccccc3-c3cc(=O)n(C4CCCCC4O)cn3)cc2)cn1 (stereo not drawn) [MIPS1780, 3-(2-hydroxycyclohexyl)-6-(2-((4-(1-methyl-1H-pyrazol-4-yl)-benzyl)oxy)phenyl)pyrimidin-4(3H)-one] | 661 | 661 | 10000 | 
completely abolished | 1.83 ± 0.14 | 44.7 | −1.02 ± 0.12 | 1.40 ± 0.08 | −1.05 ± 0.06 | 1.53 ± 0.11 | −0.16 ± 0.02 | 30.9 | 0.62 | 0.06 | 417 | 309 | 2450 | Cc1cnc(C(=O)N[C@H]2CCOC[C@@H]2O)cc1Cc1ccc(-c2cscn2)cc1 [PF-06767832, N-((3R,4S)-3-hydroxytetrahydro-2H-pyran-4-yl)-5-methyl-4-(4-(thiazol-4-yl)benzyl)pyridine-2-carboxamide] |  |  |  | 

Structure (SMILES) | Modulatory effect on ACh inhibition of [3H]NMS binding [1] | Logα ACh (logarithm of binding cooperativity between ACh and modulator) ([2]; F77^2.56I) | α ACh (binding cooperativity with ACh, antilog in brackets) ([2]; F77^2.56I) | Logα NMS (logarithm of binding cooperativity between [3H]NMS and modulator) ([2]; F77^2.56I) | Logα ACh (logarithm of binding cooperativity between ACh and modulator) ([3]; WT) | Logα NMS (logarithm of binding cooperativity between [3H]NMS and modulator) ([3]; WT) | Logα ACh (logarithm of binding cooperativity between ACh and modulator) ([4]; Y82^2.61A) | Logα NMS (logarithm of binding cooperativity between [3H]NMS and modulator) ([4]; Y82^2.61A) | α ACh (binding cooperativity with ACh, antilog in brackets) ([4]; Y82^2.61A) | α NMS (binding cooperativity with [3H]NMS, antilog in brackets) ([4]; Y82^2.61A) | α NMS (binding cooperativity with [3H]NMS, antilog in brackets) ([2]; F77^2.56I) | Kb ([2]; F77^2.56I, allosteric ternary complex model, 0.3 nM [3H]NMS, read-out: pKB (negative logarithm of the allosteric modulator equilibrium dissociation constant) (converted)) [nM] | Kb ([3]; WT, allosteric ternary complex model, 0.3 nM [3H]NMS, read-out: pKB (negative logarithm of the allosteric modulator equilibrium dissociation constant) (converted)) [nM] | Kb ([4]; Y82^2.61A, allosteric ternary complex model, 0.6 nM [3H]NMS, read-out: pKB (negative logarithm of the allosteric modulator equilibrium dissociation constant) (converted)) [nM] | Kb [2] [nM] | Kb [3] [nM] | Kb [4] [nM] | α ACh (binding cooperativity with ACh, antilog in brackets) ([3]; WT)
Cn1cc(-c2ccc(Cn3cc(C(=O)N[C@H]4CCCC[C@@H]4O)c4c(F)cc(F)cc43)cn2)cn1 [VU6004256, 4,6-difluoro-N-(1S,2S)-2-hydroxycyclohexyl-1-((6-(1-methyl-1H-pyrazol-4-yl)pyridine-3-yl)methyl)-1H-indole-3-carboxamide] | completely abolished |  |  | = −2 | 1.40 ± 0.09 | = −2 | 1.08 ± 0.13 | −0.09 ± 0.03 | 11.2 | 0.76 |  |  |  |  | 417 | 479 | 2240 | 15.5
